The text below walks through data of patent publication US10865384B2, “2,4,5-tri-substituted azole-based casein kinase 1 inhibitors as inducers for cardiomyogenesis” (AGENCY FOR SCIENCE, TECHNOLOGY AND RESEARCH, priority 2014, dated 2020).

Read-outs that look alike come from different tables or passages of the source.

One experiment addresses CK1δ (Homo sapiens (Human), UniProt P48730). Description: LanthaScreen Eu kinase binding assay, CK1δ.
Another experiment has as its target CK1ϵ (Homo sapiens (Human), UniProt P49674). Description: LanthaScreen Eu kinase binding assay, CK1ϵ.
A further experiment concerns the target p38α MAPK (Homo sapiens (Human), UniProt Q16539). The experiment can be described thus: HitHunter p38 MAP kinase binding assay. The conditions noted are these: read-out: p38α MAPK IC50 ± SEM.
The next experiment relates to hESC3 Nkx2.5eGFP/w cells. Description: Differentiation in 96-U bottom ultra-low attachment well plates, GFP area imaging. The conditions noted are these: 5 μM; for Average GFP %: after CHIR99021, read on day 14, GFP area over embryoid body size; for Average GFP μm^2 / Average Area μm^2: day 14; for Average Area μm^2: embryoid body size. The experiment is classed as cell-based, human.

Sequence of p38α MAPK (Q16539 whole entry, looked up): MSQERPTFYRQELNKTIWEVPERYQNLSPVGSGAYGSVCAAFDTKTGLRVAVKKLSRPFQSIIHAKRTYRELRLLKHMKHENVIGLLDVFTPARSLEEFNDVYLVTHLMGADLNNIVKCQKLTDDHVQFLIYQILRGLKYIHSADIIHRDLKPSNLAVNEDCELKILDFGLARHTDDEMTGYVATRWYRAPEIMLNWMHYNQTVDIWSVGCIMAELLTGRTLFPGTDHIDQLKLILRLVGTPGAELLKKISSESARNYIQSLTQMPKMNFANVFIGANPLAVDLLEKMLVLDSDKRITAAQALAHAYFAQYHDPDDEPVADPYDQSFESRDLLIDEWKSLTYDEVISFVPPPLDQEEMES
Sequence of CK1δ (P48730 whole entry): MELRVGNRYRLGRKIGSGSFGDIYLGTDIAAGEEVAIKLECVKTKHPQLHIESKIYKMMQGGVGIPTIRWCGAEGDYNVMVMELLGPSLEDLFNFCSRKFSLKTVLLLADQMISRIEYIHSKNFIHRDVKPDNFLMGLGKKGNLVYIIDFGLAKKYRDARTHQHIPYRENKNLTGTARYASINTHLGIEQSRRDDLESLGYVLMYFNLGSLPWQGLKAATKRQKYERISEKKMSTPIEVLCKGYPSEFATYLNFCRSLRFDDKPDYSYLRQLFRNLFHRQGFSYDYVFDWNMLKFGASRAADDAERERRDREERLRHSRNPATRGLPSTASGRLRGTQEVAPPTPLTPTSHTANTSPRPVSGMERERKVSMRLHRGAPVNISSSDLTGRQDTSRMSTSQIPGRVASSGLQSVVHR
Sequence of CK1ϵ (P49674 whole entry): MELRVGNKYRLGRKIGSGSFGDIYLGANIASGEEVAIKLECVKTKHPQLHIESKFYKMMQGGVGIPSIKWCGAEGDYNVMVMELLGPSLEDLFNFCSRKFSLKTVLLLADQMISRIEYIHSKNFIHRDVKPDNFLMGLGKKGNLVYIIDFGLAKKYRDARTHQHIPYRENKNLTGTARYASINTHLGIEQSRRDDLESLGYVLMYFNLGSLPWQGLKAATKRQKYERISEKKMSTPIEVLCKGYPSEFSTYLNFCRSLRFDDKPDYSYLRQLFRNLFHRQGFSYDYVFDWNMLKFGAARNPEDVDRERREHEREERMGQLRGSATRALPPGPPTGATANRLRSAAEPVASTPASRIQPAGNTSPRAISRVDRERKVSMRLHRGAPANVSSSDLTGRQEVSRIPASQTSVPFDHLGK

Take `C[S+]([O-])c1ccc(-c2nc(-c3ccc(F)cc3)c(-c3ccncc3)o2)cc1` (stereo not drawn) [OZ-06]: the inhibition at 1 µM was 46% on CK1δ and 54% on CK1ϵ. Further, the IC50 at p38α MAPK is 314 ± 44 nM.

On to `Cc1cccc(-c2nc(-c3ccc4ccccc4c3F)[nH]c2C2=CCOCC2)c1` [IM-03, 5(4)-(3,6-dihydro-2H-pyran-4-yl)-2-(1-fluoronaphthalen-2-yl)-4(5)-(m-tolyl)-1H-imidazole], for which the “CK1δ inhibition at 1 μM” value at CK1δ (at 1 μM) is on record as “No inhibition at 1 μM”. Moreover, at CK1ϵ, the “CK1ϵ inhibition at 1 μM” value is on record as “No inhibition at 1 μM”. Moreover, the IC50 at p38α MAPK was found to be 262 ± 73 nM.

For `Oc1ccc(-c2nc(-c3ccc(F)cc3)c(C3=CCOCC3)[nH]2)cc1` [IM-24, 4-(5(4)-(3,6-dihydro-2H-pyran-4-yl)-4(5)-(4-fluorophenyl)-1H-imidazol-2-yl)phenol], testing at 1 µM at CK1δ gave an inhibition of 14%. The “CK1ϵ inhibition at 1 μM” value at CK1ϵ is recorded as “No inhibition at 1 μM”. The concentration for half-maximal inhibition (IC50) on p38α MAPK came to 149 ± 33 nM.

For the molecule `Fc1ccc(-c2nc(-c3ccccc3F)[nH]c2C2=CCOCC2)cc1` [IM-20, 5(4)-(3,6-dihydro-2H-pyran-4-yl)-2-(2-fluorophenyl)-4(5)-(4-fluorophenyl)-1H-imidazole], the IC50 amounted to 1520 nM on CK1δ (Table 3, read-out: IC50 CK1δ); 1520 ± 825 nM on CK1δ (read-out: CK1δ IC50 ± SEM); 1140 nM at CK1ϵ (Table 3, read-out: IC50 Ck1ε); 1140 ± 287 nM at CK1ϵ (read-out: CK1ϵ IC50 ± SEM); 561 ± 141 nM on p38α MAPK.

For the molecule `Fc1ccc(-c2nc(-c3ccc4ccccc4c3F)[nH]c2-c2ccncc2)cc1` [IM-29, 4-(2-(1-fluoronaphthalen-2-yl)-4(5)-(4-fluorophenyl)-1H-imidazol-5(4)-yl)pyridine], the 50% inhibitory concentration (IC50) at CK1δ (Table 3, read-out: IC50 CK1δ) stood at 15 nM; at CK1δ (read-out: CK1δ IC50 ± SEM) it was 15 ± 3 nM; at CK1ϵ (read-out: CK1ϵ IC50 ± SEM), 16 ± 3 nM; on CK1ϵ (read-out: IC50 Ck1ε), 16 nM; at p38α MAPK, 73 ± 17 nM.

`CCc1nc(-c2cccc(C)c2)c(-c2ccnc(NC(=O)c3ccccc3)c2)s1` [TAK 715, reference compound]: on CK1ϵ (Table 3, read-out: IC50 Ck1ε), the IC50 amounted to 107 nM.

As to `Fc1ccc(-c2nc(-c3ccccc3Br)[nH]c2-c2ccncc2)cc1` [ZQX-22, 4-[2-(2-bromophenyl)-4(5)-(4-fluorophenyl)-1H-imidazol-5(4)-yl]pyridine], in the experiment with hESC3 Nkx2.5eGFP/w cells (Induction Day 2), the “Average GFP %” value was 26.2%, the “Average GFP μm^2” value is reported as 166.5 μm^2 and the “Average Area μm^2” value is listed as 623.0 μm^2. In the experiment on hESC3 Nkx2.5eGFP/w cells (Induction Day 3), the “Average GFP %” value stood at 24.4%, the “Average GFP μm^2” value was determined as 284.4 μm^2 and the “Average Area μm^2” value turned out to be 1165.0 μm^2.

`O=[N+]([O-])c1cccc(Cl)c1-c1nc(-c2ccc(F)cc2)c(-c2ccncc2)[nH]1` [ZQX-25, 4-[2-(2-chloro-6-nitrophenyl)-4(5)-(4-fluorophenyl)-1H-imidazol-5(4)-yl]pyridine]: in the experiment with hESC3 Nkx2.5eGFP/w cells (Induction Day 2), the “Average GFP %” value came to 0.0%, the “Average GFP μm^2” value came to 0.0 μm^2 and the “Average Area μm^2” value came out at 544.3 μm^2. In the experiment on hESC3 Nkx2.5eGFP/w cells (Induction Day 3), the “Average GFP %” value amounted to 15.6%, the “Average GFP μm^2” value was 163.6 μm^2 and the “Average Area μm^2” value is listed as 1105.4 μm^2.

For `Fc1ccc(-c2nc(-c3c(F)cccc3Cl)[nH]c2-c2ccncc2)cc1` [ZQX-19, 4-[2-(2-chloro-6-fluorophenyl)-4(5)-(4-fluorophenyl)-1H-imidazol-5(4)-yl]pyridine], in the experiment on hESC3 Nkx2.5eGFP/w cells (at specific time course (induction day 2 or 3)), the Cardiogenic properties result is “higher cardiogenic properties as SB203580 and IWP-2”. For the same molecule, in the experiment on hESC3 Nkx2.5eGFP/w cells (Induction Day 2), the “Average GFP %” value is given as 2.4%, the “Average GFP μm^2” value is reported as 46.4 μm^2 and the “Average Area μm^2” value is 903.3 μm^2. Moreover, in the experiment on hESC3 Nkx2.5eGFP/w cells (Induction Day 3), the “Average GFP %” value was 32.7%, the “Average GFP μm^2” value came out at 511.6 μm^2 and the “Average Area μm^2” value was determined as 1616.9 μm^2.

Turning to `COc1ccccc1-c1nc(-c2ccc(F)cc2)c(-c2ccncc2)[nH]1` [ZQX-16, 4-[2-(2-methoxyphenyl)-4(5)-(4-fluorophenyl)-1H-imidazol-5(4)-yl]pyridine], in the experiment on hESC3 Nkx2.5eGFP/w cells (Induction Day 2), the “Average GFP %” value was determined as 32.8%, the “Average GFP μm^2” value was found to be 184.7 μm^2 and the “Average Area μm^2” value worked out at 576.1 μm^2. Further, in the experiment with hESC3 Nkx2.5eGFP/w cells (Induction Day 3), the “Average GFP %” value amounted to 14.5%, the “Average GFP μm^2” value came out at 125.6 μm^2 and the “Average Area μm^2” value is on record as 950.3 μm^2.
